Where only a bound is given, the exact number is not on record here.

Data set [1] is described as follows: Thermodynamic solubility of the compound in 30 mM phosphate buffer at 10 mM at pH 2 after 2 to 5 days by UV-HPLC analysis. The note with it: read-out: Therm_solubility. The class given is physicochemical.
In data set [2] the target is cAMP-dependent protein kinase catalytic subunit alpha (Homo sapiens) (UniProt P17612). Nature of the data set: Inhibition of recombinant human His-tagged PRKACA expressed in Escherichia coli at 10 uM in presence of ATP relative to control.
In data set [3] the target is Calcium/calmodulin-dependent protein kinase type 1D (Homo sapiens) (UniProt Q8IU85). Description: Inhibition of CaMK1delta (unknown origin) at 10 uM in presence of ATP relative to control.
For data set [4], the target named is Somatostatin receptor. Description: Displacement of [125I]Tyr11-somatostatin-14 from mouse SST receptor after 60 mins by scintillation counting analysis. It is filed as protein assay. (In general: In a radioligand displacement assay an active substance lowers the binding of a labelled ligand.)
For data set [5], the target named is Mu-type opioid receptor (Homo sapiens, UniProt P35372). Nature of the data set: Displacement of [3H]DAMGO from human recombinant mu receptor at 10 uM after 120 mins by scintillation counting analysis relative to control.
Sequence of Mu-type opioid receptor (P35372 whole entry): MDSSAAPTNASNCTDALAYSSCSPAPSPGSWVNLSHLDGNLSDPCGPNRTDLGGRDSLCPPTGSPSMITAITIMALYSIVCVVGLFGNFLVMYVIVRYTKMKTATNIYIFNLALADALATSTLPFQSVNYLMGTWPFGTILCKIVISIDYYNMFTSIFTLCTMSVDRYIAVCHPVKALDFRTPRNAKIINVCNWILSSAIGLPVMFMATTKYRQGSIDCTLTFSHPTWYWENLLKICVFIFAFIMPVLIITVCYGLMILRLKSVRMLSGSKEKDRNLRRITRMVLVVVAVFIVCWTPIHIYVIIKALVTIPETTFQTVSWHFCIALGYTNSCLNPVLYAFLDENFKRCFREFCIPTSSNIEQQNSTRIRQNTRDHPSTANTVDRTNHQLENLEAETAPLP
The target of data set [6] is Vasoactive intestinal polypeptide receptor 1 (Homo sapiens) (UniProt P32241). Nature of the data set: Displacement of [125I]VIP from human recombinant VPAC1 receptor at 1 uM after 60 mins by scintillation counting analysis relative to control.
Sequence of Vasoactive intestinal polypeptide receptor 1 (Homo sapiens) (P32241 whole entry, the tested form may be a part): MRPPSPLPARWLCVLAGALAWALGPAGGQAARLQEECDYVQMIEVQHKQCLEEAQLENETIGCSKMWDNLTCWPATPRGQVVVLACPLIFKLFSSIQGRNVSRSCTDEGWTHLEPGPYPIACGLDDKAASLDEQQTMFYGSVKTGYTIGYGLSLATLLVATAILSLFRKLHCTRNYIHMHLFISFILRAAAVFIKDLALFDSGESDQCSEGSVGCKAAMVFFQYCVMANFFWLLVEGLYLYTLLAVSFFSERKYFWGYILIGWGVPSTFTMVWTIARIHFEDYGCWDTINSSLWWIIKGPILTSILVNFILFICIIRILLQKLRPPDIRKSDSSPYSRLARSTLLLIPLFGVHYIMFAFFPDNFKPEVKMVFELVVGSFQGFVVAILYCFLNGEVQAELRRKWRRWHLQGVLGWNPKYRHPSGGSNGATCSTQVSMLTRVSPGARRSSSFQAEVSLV
The target in data set [7] is NT-3 growth factor receptor (Homo sapiens) (UniProt Q16288). Description: Inhibition of recombinant full length His-tagged human NTRK3 (510 to 825 residues) cytoplasmic domain expressed in baculovirus expression system at 10 uM in presence of ATP relative to control.
Sequence of NT-3 growth factor receptor (Homo sapiens) (Q16288 32-839 limits assumed): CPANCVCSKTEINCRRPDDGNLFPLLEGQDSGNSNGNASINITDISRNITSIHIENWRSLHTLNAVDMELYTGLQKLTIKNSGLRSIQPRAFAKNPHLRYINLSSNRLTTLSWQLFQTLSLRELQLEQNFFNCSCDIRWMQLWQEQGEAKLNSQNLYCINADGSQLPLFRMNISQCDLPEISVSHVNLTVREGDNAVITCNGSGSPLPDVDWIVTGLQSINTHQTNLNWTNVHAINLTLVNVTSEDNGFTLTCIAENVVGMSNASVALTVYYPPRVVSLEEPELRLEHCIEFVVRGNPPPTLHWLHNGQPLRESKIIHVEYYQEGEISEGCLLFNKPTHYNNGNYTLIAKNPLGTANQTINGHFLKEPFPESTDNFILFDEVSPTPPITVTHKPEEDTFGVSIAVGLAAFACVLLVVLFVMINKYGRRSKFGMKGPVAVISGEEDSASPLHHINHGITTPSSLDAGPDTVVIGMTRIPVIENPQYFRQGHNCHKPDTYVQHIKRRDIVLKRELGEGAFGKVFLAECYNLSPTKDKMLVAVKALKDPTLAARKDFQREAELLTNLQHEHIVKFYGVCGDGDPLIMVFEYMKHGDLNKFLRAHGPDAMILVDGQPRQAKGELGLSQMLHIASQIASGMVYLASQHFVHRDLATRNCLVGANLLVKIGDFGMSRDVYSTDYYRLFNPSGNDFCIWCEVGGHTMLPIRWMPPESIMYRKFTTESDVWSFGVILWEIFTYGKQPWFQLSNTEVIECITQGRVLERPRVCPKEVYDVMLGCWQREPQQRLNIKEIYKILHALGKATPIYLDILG
In data set [8] the target is Serine/threonine-protein kinase Nek2 (Homo sapiens) (UniProt P51955). Description: Inhibition of recombinant full length His-tagged human NEK2 expressed in baculovirus expression system at 10 uM in presence of ATP relative to control.
Sequence of Serine/threonine-protein kinase Nek2 (Homo sapiens) (P51955 whole entry): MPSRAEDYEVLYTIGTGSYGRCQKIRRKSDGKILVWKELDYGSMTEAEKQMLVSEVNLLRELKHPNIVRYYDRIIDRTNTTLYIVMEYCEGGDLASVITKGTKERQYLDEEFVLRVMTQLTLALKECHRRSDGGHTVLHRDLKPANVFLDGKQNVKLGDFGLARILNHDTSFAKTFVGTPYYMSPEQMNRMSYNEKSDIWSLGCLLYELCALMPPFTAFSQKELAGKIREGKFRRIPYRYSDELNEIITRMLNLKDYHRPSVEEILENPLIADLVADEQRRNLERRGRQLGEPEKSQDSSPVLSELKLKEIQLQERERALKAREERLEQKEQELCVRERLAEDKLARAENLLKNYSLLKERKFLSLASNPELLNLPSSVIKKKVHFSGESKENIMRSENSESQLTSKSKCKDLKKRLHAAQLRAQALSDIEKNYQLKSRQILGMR
The species named for data set [9] is Rattus norvegicus. Nature of the data set: Binding affinity to rat GABA receptor at 1 uM after 60 mins by agonist radioligand binding assay relative to control.
The target of data set [10] is 5-hydroxytryptamine receptor 1B (Rattus norvegicus, UniProt P28564). Nature of the data set: Displacement of [125I]-CYP from rat brain 5-HT1B receptor after 120 mins by scintillation counting analysis.
Sequence of 5-hydroxytryptamine receptor 1B (P28564 whole entry): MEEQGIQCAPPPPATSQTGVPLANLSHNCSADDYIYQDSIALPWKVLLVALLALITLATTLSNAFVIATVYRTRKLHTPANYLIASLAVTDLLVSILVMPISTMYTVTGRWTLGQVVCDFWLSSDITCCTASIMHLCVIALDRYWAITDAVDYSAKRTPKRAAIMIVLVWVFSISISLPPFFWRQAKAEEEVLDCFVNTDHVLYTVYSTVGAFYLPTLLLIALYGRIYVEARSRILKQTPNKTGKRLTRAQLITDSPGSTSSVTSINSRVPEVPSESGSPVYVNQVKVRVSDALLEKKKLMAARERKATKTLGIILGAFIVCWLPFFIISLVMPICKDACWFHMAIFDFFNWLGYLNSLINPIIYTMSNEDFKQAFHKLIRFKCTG
Data set [11] deals with Casein kinase II subunit alpha (Homo sapiens) (UniProt P68400). Description: Inhibition of CK2alpha1 (unknown origin) at 10 uM in presence of ATP relative to control.
Data set [12] has as its target Sodium-dependent dopamine transporter (Homo sapiens) (UniProt Q01959). Description: Displacement of [3H][…] from recombinant human Dopamine transporter at 10 uM after 120 mins by scintillation counting analysis relative to control.
Data set [13] deals with T1, Nuclear receptor ROR-gamma (Homo sapiens, UniProt P51449).
T1 sequence (P51449 whole entry): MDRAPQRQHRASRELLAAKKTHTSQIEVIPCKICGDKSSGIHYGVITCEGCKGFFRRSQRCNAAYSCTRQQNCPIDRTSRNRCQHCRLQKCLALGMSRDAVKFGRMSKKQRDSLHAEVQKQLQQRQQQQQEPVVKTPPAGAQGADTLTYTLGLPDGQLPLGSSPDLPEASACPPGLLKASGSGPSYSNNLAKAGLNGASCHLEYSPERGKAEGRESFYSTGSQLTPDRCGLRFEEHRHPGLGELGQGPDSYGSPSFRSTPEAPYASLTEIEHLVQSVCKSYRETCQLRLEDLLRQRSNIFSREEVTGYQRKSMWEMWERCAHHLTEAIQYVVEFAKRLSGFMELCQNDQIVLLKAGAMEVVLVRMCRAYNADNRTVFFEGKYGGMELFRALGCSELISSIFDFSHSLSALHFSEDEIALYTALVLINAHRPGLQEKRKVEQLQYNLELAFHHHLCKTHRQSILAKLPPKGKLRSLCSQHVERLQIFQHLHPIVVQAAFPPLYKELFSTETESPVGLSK
Nature of the data set: Binding affinity to recombinant human RORgamma LBD (237 to 497 residues) expressed in Escherichia coli BL21 (DE3) GOLD by 1,8-ANS dye-based thermofluor assay. (In general: In DSF a fluorescence change marks the thermal transition of the protein.)

A short description of data set [14]: Tmax in Sprague-Dawley rat at 5 mg/kg, po. The class given is ADME, organism-based. The note with it: in vivo.
The target in data set [15] is Death-associated protein kinase 3 (Homo sapiens) (UniProt O43293). Description: Inhibition of recombinant full length GST-tagged human ZIPK expressed in baculovirus expression system at 10 uM in presence of ATP relative to control.
Data set [16] addresses 5-hydroxytryptamine receptor 1A (Homo sapiens) (UniProt P08908). Description: Displacement of [3H]8-OH-DPAT from recombinant human 5-HT1A receptor at 10 uM after 60 mins by scintillation counting analysis relative to control.
Data set [17] concerns the target Delta-type opioid receptor (Homo sapiens, UniProt P41143). Description: Displacement of [3H]DADLE from human recombinant delta opioid receptor at 10 uM after 60 mins by scintillation counting analysis relative to control.
The target in data set [18] is C-X-C chemokine receptor type 2 (Homo sapiens) (UniProt P25025). Description: Displacement of [125I]IL-8 from human recombinant CXCR2 receptor at 1 uM after 60 mins by scintillation counting analysis relative to control.
Data set [19] has as its target Sodium-dependent dopamine transporter (Homo sapiens) (UniProt Q01959). Nature of the data set: Displacement of [3H][…] from recombinant human dopamine transporter at 1 uM after 120 mins by scintillation counting analysis relative to control.
In data set [20] the target is Neuromedin-K receptor (Homo sapiens, UniProt P29371). Nature of the data set: Displacement of [3H]SR 142801 from human recombinant NK3 receptor after 120 mins by scintillation counting analysis.
Sequence of Neuromedin-K receptor (P29371 whole entry): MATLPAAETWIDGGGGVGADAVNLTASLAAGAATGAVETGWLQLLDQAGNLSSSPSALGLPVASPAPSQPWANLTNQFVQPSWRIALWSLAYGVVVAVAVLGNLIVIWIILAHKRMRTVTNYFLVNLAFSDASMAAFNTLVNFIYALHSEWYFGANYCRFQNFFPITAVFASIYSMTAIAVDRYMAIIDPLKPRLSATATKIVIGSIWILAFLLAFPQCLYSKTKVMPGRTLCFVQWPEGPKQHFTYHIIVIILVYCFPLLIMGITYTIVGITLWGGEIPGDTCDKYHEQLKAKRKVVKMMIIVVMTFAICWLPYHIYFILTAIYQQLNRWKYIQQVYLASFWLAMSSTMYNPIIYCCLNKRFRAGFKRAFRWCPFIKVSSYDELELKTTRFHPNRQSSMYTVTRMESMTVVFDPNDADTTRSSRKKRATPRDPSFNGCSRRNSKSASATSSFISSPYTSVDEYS
For data set [21], the target named is 5-hydroxytryptamine receptor 2A (Homo sapiens, UniProt P28223). Description: Displacement of [3H]ketanserin human recombinant 5-HT2A receptor at 1 uM after 60 mins by scintillation counting analysis relative to control.
Sequence of 5-hydroxytryptamine receptor 2A (P28223 whole entry): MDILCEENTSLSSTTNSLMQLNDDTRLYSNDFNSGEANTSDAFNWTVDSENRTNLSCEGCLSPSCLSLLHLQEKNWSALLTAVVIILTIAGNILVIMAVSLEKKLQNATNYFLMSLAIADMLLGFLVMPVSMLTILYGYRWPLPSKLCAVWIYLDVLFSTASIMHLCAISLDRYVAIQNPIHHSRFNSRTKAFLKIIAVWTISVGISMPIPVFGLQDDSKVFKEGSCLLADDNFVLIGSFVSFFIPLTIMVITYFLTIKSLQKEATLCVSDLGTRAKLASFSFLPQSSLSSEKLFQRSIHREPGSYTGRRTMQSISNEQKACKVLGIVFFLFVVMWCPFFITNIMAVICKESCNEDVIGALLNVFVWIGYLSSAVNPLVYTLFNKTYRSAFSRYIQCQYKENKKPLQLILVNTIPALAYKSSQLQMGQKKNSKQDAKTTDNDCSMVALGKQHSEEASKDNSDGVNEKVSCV
The target in data set [22] is D(1A) dopamine receptor (Homo sapiens, UniProt P21728). Nature of the data set: Displacement of [3H]-SCH 23390 from human recombinant dopamine D1 receptor after 60 mins by scintillation counting analysis.
Sequence of D(1A) dopamine receptor (P21728 whole entry): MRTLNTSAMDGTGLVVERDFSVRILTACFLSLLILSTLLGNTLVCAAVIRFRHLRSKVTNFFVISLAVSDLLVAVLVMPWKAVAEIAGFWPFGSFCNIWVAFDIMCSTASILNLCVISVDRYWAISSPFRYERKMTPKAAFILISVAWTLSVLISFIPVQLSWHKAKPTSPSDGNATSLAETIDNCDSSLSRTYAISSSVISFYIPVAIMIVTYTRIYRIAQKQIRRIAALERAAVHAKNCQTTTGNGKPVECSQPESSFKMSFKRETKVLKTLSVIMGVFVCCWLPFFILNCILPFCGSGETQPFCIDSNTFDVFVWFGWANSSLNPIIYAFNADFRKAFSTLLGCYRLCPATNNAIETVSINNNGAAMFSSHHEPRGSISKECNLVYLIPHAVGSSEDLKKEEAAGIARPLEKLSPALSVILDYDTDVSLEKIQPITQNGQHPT
Data set [23] addresses Vasopressin V1a receptor (Homo sapiens, UniProt P37288). Description: Displacement of [3H]AVP from human recombinant V1a receptor at 1 uM after 60 mins by scintillation counting analysis relative to control.

Sequence of Sodium-dependent dopamine transporter (Homo sapiens) (Q01959 whole entry): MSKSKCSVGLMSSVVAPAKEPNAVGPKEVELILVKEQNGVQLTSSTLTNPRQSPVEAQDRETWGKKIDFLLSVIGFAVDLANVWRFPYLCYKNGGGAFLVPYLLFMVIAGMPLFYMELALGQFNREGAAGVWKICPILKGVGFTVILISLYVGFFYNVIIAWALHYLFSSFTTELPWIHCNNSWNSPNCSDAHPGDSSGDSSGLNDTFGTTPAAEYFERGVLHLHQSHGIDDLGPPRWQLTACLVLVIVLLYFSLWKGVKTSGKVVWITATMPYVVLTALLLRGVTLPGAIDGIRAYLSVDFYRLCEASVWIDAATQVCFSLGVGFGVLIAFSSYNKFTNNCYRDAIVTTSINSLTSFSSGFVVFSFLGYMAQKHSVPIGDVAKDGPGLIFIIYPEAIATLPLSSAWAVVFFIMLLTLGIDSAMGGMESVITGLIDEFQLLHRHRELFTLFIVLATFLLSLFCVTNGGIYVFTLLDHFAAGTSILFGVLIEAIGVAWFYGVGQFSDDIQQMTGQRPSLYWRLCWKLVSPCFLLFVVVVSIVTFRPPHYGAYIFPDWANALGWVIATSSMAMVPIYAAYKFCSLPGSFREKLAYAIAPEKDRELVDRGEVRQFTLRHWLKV
Sequence of Vasopressin V1a receptor (P37288 whole entry, looked up): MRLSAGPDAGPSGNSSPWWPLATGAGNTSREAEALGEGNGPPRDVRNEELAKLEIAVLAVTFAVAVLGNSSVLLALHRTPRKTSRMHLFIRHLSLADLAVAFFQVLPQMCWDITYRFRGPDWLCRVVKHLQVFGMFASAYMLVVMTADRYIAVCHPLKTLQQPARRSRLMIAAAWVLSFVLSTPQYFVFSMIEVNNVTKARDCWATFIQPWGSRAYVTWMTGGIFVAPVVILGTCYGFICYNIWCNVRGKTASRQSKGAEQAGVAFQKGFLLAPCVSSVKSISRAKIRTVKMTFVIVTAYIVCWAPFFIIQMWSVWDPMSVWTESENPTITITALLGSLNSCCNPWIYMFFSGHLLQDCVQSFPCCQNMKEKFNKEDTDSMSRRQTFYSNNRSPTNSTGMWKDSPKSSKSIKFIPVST

Usually inhibition stands for the drop in the measured response relative to a control, in per cent. As usually defined, the IC50 is the concentration at which inhibition is half-maximal. What is called Kd is the free concentration of one partner at which half of the binding sites on the other are occupied at equilibrium, for simple one-to-one binding. What is called Tmax is the time from dosing to the highest level. On to `CC(C)(C)NS(=O)(=O)c1ccc(-c2sc(C(=O)N[C@H]3C[C@H](C(=O)O)C3)nc2CC2CCCCC2)c2ccccc12`, for which the solubility thermodynamic at 10000 µM in [1] was < 1 µM. For the same compound, the inhibition was -4% in data set [2]; 11% in data set [3]; 12% in [5]; < 10% in data set [6]; -10% in data set [7]; -6% in data set [8]. Besides, the inhibition in [9] was < 10%; in data set [11] it was 0%; in data set [12], 47%; in data set [15], -5%; in data set [16] it was 16%; in [17], 22%. In addition, the inhibition is < 10% in data set [18], 18% in data set [19], < 10% in data set [21] and < 10% in [23]. The IC50 in [4] came out at 310 pM; in data set [10], 14000 pM; in data set [20], 8200 pM; in [22], 210 pM. Besides, the Kd in data set [13] turned out to be 120 pM. Also, in data set [14], the Tmax was determined as 48 min.

The values above are taken from ChEMBL document CHEMBL4118122, “Identification and biological evaluation of thiazole-based inverse agonists of RORγt” (Bioorg Med Chem Lett, 2018).
